Key:
[1] = target: T1, Adenosine receptor A3 (Homo sapiens) (UniProt P0DMS8); experiment: Displacement of [3H]NECA from human recombinant adenosine A3 receptor expressed in HEK293T cells at 100 uM; assay type: cell-based; details: HEK-293T
T1 sequence (whole entry): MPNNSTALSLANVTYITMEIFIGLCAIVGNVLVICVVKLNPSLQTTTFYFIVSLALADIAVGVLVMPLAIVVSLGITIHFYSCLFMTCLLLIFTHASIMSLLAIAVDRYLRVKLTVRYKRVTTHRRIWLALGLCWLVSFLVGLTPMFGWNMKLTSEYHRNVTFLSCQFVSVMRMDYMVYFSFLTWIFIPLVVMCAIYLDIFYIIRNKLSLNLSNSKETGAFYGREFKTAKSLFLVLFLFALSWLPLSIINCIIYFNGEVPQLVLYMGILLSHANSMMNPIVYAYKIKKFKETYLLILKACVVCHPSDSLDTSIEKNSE

Adenosine receptor A1 = target: T2, Adenosine receptor A1 (Homo sapiens, UniProt P30542); experiment: Displacement of [3H]DPCPX from human recombinant adenosine A1 receptor expressed in HEK293T cells; assay type: cell-based, HEK-293T
T2 sequence (P30542 whole entry): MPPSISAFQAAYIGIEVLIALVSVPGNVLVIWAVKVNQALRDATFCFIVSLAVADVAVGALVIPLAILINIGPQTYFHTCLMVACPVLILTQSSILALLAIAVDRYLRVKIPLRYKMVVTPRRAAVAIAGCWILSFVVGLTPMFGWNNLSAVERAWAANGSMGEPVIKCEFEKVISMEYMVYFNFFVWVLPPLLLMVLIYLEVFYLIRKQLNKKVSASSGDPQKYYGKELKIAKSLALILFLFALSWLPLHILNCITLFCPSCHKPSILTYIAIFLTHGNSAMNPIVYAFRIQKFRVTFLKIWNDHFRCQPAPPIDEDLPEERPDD

Adenosine receptor A3 = target: T3, Adenosine receptor A3 (Homo sapiens, UniProt P0DMS8); experiment: Displacement of [3H]NECA from human recombinant adenosine A3 receptor expressed in HEK293T cells; assay type: cell-based, HEK-293T
T3 sequence (P0DMS8 whole entry): T1 sequence (whole entry)

[2] = target: T4, Adenosine receptor A1 (Homo sapiens) (UniProt P30542); experiment: Displacement of [3H]DPCPX from human recombinant adenosine A1 receptor expressed in HEK293T cells at 100 uM; assay type: cell-based; details: HEK-293T
T4 sequence (whole entry): T2 sequence (P30542 whole entry)

Adenosine receptor A2a [3] = target: T5, Adenosine receptor A2a (Homo sapiens, UniProt P29274); experiment: Displacement of [3H]CGS21680 from human recombinant adenosine A2A receptor expressed in HEK293T cells at 100 uM; assay type: cell-based; details: HEK-293T
T5 sequence (P29274 whole entry): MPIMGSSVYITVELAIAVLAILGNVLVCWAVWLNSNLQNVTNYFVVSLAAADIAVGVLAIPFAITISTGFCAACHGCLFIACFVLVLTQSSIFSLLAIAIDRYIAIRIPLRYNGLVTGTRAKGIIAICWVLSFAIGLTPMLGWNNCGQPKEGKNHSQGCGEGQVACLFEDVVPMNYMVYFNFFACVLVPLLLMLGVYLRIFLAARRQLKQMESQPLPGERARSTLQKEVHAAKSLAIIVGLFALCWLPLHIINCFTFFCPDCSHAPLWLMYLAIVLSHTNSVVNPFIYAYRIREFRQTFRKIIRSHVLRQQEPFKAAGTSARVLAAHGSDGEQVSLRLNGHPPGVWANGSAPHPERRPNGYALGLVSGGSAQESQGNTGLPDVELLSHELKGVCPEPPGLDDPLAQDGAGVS

Adenosine receptor A2a [4] = target: T5, Adenosine receptor A2a; experiment: biochemical

Structure (SMILES)	Activity [1] [%]	Ki (Adenosine receptor A1) [µM]	Ki (Adenosine receptor A3) [µM]	Activity [2] [%]	Activity (Adenosine receptor A2a [3]) [%]	Ki (Adenosine receptor A2a [4]) [µM]
Cn1c(=O)c2c(ncn2C)n(C)c1=O	9					
Cn1c(=O)c2c(c3ncccc3n2C)n(C)c1=O		13.5	0.332			
CN1C(=O)C(N)C(c2ccncc2Cl)N(C)C1=O (stereo unspecified)	3			8	15	
Oc1c(Br)cc2[nH]c3cnccc3c2c1Br		7.37	2.05			4.92
Cn1c(=O)c2[nH]c3cccnc3c2n(C)c1=O		0.379	0.0139			

More lines, main results first:

Activity [1] [%]	Ki (Adenosine receptor A1) [µM]	Ki (Adenosine receptor A3) [µM]	Activity [2] [%]	Activity (Adenosine receptor A2a [3]) [%]	Structure (SMILES)	Ki (Adenosine receptor A2a [4]) [µM]
25			22	38	CN1CC(Nc2cccnc2)C(=O)N(C)C1=O (stereo unspecified)	
	11.7	0.526			Cn1c(=O)c2[nH]c3cnccc3c2n(C)c1=O	
		3.19			Cn1c(=O)c2c(c3ccncc3n2C)n(C)c1=O	4.19
0.2			9	29	CN1CC(N(C)c2cccnc2)C(=O)N(C)C1=O (stereo unspecified)	

— ChEMBL document CHEMBL1142932 (Bioorg Med Chem, 2007)
